Assay results reported in the supplement of paper PMC11061612.

Legend:
A673 (Ewing's Sarcoma) [1] = test: Bliss excess, mean over the matrix (fraction); higher = more synergy
In short: (§1)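 Cell lines grown in DMEM/F12 or RPMI with 10% FBS were plated in 1536-well plates and held 24 hours at 37°C, 5% CO2 before 72 hours of exposure to two-drug dose matrices, with DMSO typically at 0.2%. CellTiter-Glo 2.0 luminescence gave viability, which was converted to inhibition. Vehicle wells were set to 0 and blank wells to 1. Combination Emax is the second-highest inhibition in the matrix, and Bliss excess is the observed combination effect minus the expected EA + EB − EA·EB, where EA and EB are the single-agent effects.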

[2] = tested on: BFTC-909 (Kidney Carcinoma); test: as above
In short: as §1

[3] = tested on: CAL-33 (Oral Cavity Carcinoma); test: as above
In short: as §1

[4] = tested on: Detroit562 (Head and Neck Carcinoma); test: as above
In short: as §1

GAMG (Glioblastoma) = test: as above
In short: as §1

MPP-89 (Mesothelioma) = test: as above
In short: as §1

[5] = tested on: NCI-H1568 (Lung Adenocarcinoma); test: as above
In short: as §1

NCI-H2052 (Mesothelioma) = test: as above
In short: as §1

[6] = tested on: NCI-H209 (Small Cell Lung Carcinoma); test: as above
In short: as §1

[7] = tested on: NCI-H524 (Small Cell Lung Carcinoma); test: as above
In short: as §1

[8] = tested on: SNU-16 (Gastric Carcinoma); test: as above
In short: as §1

[9] = tested on: SNU-449 (Hepatocellular Carcinoma); test: as above
In short: as §1

[10] = tested on: SW1573 (Lung Adenocarcinoma); test: as above
In short: as §1

[11] = tested on: SW1710 (Bladder Carcinoma); test: as above
In short: as §1

[12] = tested on: YAPC (Pancreatic Carcinoma); test: as above
In short: as §1

A673 (Ewing's Sarcoma) [13] = test: combination Emax (second highest fraction inhibited in the dose matrix, 72 h); higher = more inhibition; extreme values may be limits of the assay
In short: as §1

[14] = tested on: BFTC-909 (Kidney Carcinoma); test: as above
In short: as §1

KS-1 (Glioblastoma) = test: as above
In short: as §1

[15] = tested on: SNU-449 (Hepatocellular Carcinoma); test: as above
In short: as §1

[16] = tested on: SW1710 (Bladder Carcinoma); test: as above
In short: as §1
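For Bliss excess, mean over the matrix in this document: after 72 h of two-drug dosing.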

| SMILES | Bliss excess (A673 (Ewing's Sarcoma) [1]) | Bliss excess [2] | Bliss excess [3] | Bliss excess [4] | Bliss excess (GAMG (Glioblastoma)) | Bliss excess (MPP-89 (Mesothelioma)) | Bliss excess [5] | Bliss excess (NCI-H2052 (Mesothelioma)) | Bliss excess [6] | Bliss excess [7] | Bliss excess [8] | Bliss excess [9] | Bliss excess [10] | Bliss excess [11] | Bliss excess [12] | combination Emax (A673 (Ewing's Sarcoma) [13]) | combination Emax [14] | combination Emax (KS-1 (Glioblastoma)) | combination Emax [15] | combination Emax [16] |
| --- | --- | --- | --- | --- | --- | --- | --- | --- | --- | --- | --- | --- | --- | --- | --- | --- | --- | --- | --- | --- |
| CC1(C)CCC(CN2CCN(c3ccc(C(=O)NS(=O)(=O)c4ccc(NCC5CCOCC5)c([N+](=O)[O-])c4)c(Oc4cnc5[nH]ccc5c4)c3)CC2)=C(c2ccc(Cl)cc2)C1 [Venetoclax] + Cc1cc2ncnn2cc1Nc1ncc2c(n1)n(C1CCOCC1)c(=O)n2C [AZD7648] (first compound max 1 µM, 7x7, partner max 10 µM) | -0.0124 | 0.0017 | 0.0043 | -0.0205 | -0.024 | 0.0173 | -0.0256 | -0.0019 | 0.0416 | -0.005 | -0.0396 | -0.0699 | -0.0609 | -0.0217 | -0.0143 | 0.597 | 0.294 | 0.294 | 0.229 | 0.248 |
| CC1(C)CCC(CN2CCN(c3ccc(C(=O)NS(=O)(=O)c4ccc(NCC5CCOCC5)c([N+](=O)[O-])c4)c(Oc4cnc5[nH]ccc5c4)c3)CC2)=C(c2ccc(Cl)cc2)C1 [Venetoclax] + Cn1cnc2c(F)c(Nc3ccc(Br)cc3Cl)c(C(=O)NOCCO)cc21 [Selumetinib] (first compound max 1 µM, 7x7, partner max 3 µM) | 0.0048 | -0.0315 | -0.0292 | -0.0516 | -0.0576 | -0.0235 | -0.0681 | -0.0126 | 0.0379 | -0.0392 | -0.0052 | -0.0609 | -0.0621 | -0.0134 | -0.0474 | 0.65 | 0.23 | 0.261 | 0.109 | 0.216 |
